Earlier results on 1 substance are cited in patent publication EP1964566A1, “PREPARATION WITH IMPROVED BIOABSORBABILITY OF SAPROPTERIN HYDROCHLORIDE” (Asubio Pharma Co., Ltd., priority 2005, dated 2007).

For this series the following is noted: in vivo, po.

On to sapropterin hydrochloride, for which the bioavailability is listed as 1-2%.
